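These data come from cells grown in 96-well plates and exposed to compound for 48 hours at five concentrations. At the GI50, growth is halved.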 Activity calls are given as the source filed them. Cut-off read from the data, not from the text of the source: active = GI50 up to about 1.1 µM and inactive = higher.
Columns and labels:
Test in all cases: NCI-60 cell line screen, 48 h
[1] = system: UACC-257
[2] = system: HOP-62
[3] = system: MDA-MB-435
[4] = system: A498
[5] = system: HT-29
[6] = system: NCI-H460
[7] = system: MDA-N
[8] = system: T47D
[9] = system: SF-268
[10] = system: RPMI-8226
[11] = system: BT-549
[12] = system: PC-3
[13] = system: NCI/ADR-RES
[14] = system: DU-145
[15] = system: NCI-H522

Structure (SMILES): O=S(=O)(O)c1ccc2cc(/N=N\c3cc(S(=O)(=O)O)c4cccnc4c3O)ccc2c1
- GI50 [1]: > 100 µM (inactive)
- GI50 [2]: > 100 µM (inactive)
- GI50 [3]: > 100 µM (inactive)
- GI50 [4]: > 100 µM (inactive)
- GI50 [5]: > 100 µM (inactive)
- GI50 [6]: > 100 µM (inactive)
- GI50 [7]: > 100 µM (inactive)
- GI50 [8]: > 100 µM (inactive)
- GI50 [9]: > 100 µM (inactive)
- GI50 [10]: > 100 µM (inactive)
- GI50 [11]: > 100 µM (inactive)
- GI50 [12]: > 100 µM (inactive)
- GI50 [13]: > 100 µM (inactive)
- GI50 [14]: > 100 µM (inactive)
- GI50 [15]: > 100 µM (inactive)

Structure (SMILES): CN(C)c1cccc(/C=C(\C#N)c2ccccc2)c1
- GI50 [1]: 1.01 µM (active)
- GI50 [2]: 0.164 µM (active)
- GI50 [3]: 0.0478 µM (active)
- GI50 [4]: 2.11 µM (inactive)
- GI50 [5]: 0.213 µM (active)
- GI50 [6]: 0.527 µM (active)
- GI50 [7]: 0.0451 µM (active)
- GI50 [8]: 0.525 µM (active)
- GI50 [9]: 8.77 µM (inactive)
- GI50 [10]: 0.579 µM (active)
- GI50 [11]: 21.3 µM (inactive)
- GI50 [12]: 1.12 µM (active)
- GI50 [13]: 0.257 µM (active)
- GI50 [14]: 1.65 µM (inactive)
- GI50 [15]: 0.273 µM (active)

Structure (SMILES): CCC(=O)OCN(C)c1nc(N(C)COC(=O)CC)nc(N(C)COC(=O)CC)n1
- GI50 [1]: 38.9 µM (inactive)
- GI50 [2]: > 100 µM (inactive)
- GI50 [3]: > 100 µM (inactive)
- GI50 [4]: 49 µM (inactive)
- GI50 [5]: 26.9 µM (inactive)
- GI50 [6]: 33.4 µM (inactive)
- GI50 [7]: 33.3 µM (inactive)
- GI50 [8]: 35.3 µM (inactive)
- GI50 [10]: 27.4 µM (inactive)
- GI50 [11]: 32.9 µM (inactive)
- GI50 [12]: 27.4 µM (inactive)
- GI50 [13]: 32.4 µM (inactive)
- GI50 [14]: 37 µM (inactive)

Structure (SMILES): CCCNC(C#N)c1ccc(C(C#N)NCCC)cc1 (configuration not stated)
- GI50 [1]: > 100 µM (inactive)
- GI50 [3]: 76.4 µM (inactive)
- GI50 [4]: > 100 µM (inactive)
- GI50 [5]: > 100 µM (inactive)
- GI50 [6]: > 100 µM (inactive)
- GI50 [7]: 36.3 µM (inactive)
- GI50 [8]: > 100 µM (inactive)
- GI50 [9]: > 100 µM (inactive)
- GI50 [11]: > 100 µM (inactive)
- GI50 [12]: > 100 µM (inactive)
- GI50 [13]: 50.2 µM (inactive)
- GI50 [14]: > 100 µM (inactive)
- GI50 [15]: > 100 µM (inactive)

Structure (SMILES): COc1cc(C2C3=C(N=C4SC(C(C)=O)=C(C)N42)c2ccccc2CC3)cc(OC)c1OC (configuration not stated)
- GI50 [1]: > 100 µM (inactive)
- GI50 [2]: 97.9 µM (inactive)
- GI50 [3]: 57 µM (inactive)
- GI50 [4]: > 100 µM (inactive)
- GI50 [5]: 64.4 µM (inactive)
- GI50 [7]: 28.7 µM (inactive)
- GI50 [8]: 11.4 µM (inactive)
- GI50 [9]: > 100 µM (inactive)
- GI50 [10]: 13.8 µM (inactive)
- GI50 [11]: > 100 µM (inactive)
- GI50 [12]: > 100 µM (inactive)
- GI50 [13]: 78.9 µM (inactive)
- GI50 [14]: > 100 µM (inactive)

Structure (SMILES): CN(C)/N=N/c1ccc(NC=O)cc1
- GI50 [1]: > 100 µM (inactive)
- GI50 [2]: > 100 µM (inactive)
- GI50 [3]: > 100 µM (inactive)
- GI50 [4]: > 100 µM (inactive)
- GI50 [5]: > 100 µM (inactive)
- GI50 [6]: > 100 µM (inactive)
- GI50 [7]: > 100 µM (inactive)
- GI50 [8]: 39.6 µM (inactive)
- GI50 [9]: 0.456 µM (active)
- GI50 [10]: 69 µM (inactive)
- GI50 [11]: > 100 µM (inactive)
- GI50 [12]: > 100 µM (inactive)
- GI50 [13]: > 100 µM (inactive)
- GI50 [14]: > 100 µM (inactive)

Structure (SMILES): CCC1(O)CC(O)c2c(O)c3c(c(O)c2C1C(=O)OC)C(=O)c1cccc(O)c1C3=O (configuration not stated)
- GI50 [1]: 3.65 µM (inactive)
- GI50 [2]: 3.22 µM (inactive)
- GI50 [3]: 5.45 µM (inactive)
- GI50 [4]: 3.78 µM (inactive)
- GI50 [5]: 3.27 µM (inactive)
- GI50 [6]: 1.7 µM (inactive)
- GI50 [7]: 5.36 µM (inactive)
- GI50 [8]: 3.77 µM (inactive)
- GI50 [9]: 2.44 µM (inactive)
- GI50 [10]: 2.21 µM (inactive)
- GI50 [11]: 6.85 µM (inactive)
- GI50 [12]: 2.86 µM (inactive)
- GI50 [13]: 0.656 µM (active)
- GI50 [14]: 5.42 µM (inactive)
- GI50 [15]: 1.75 µM (inactive)

Structure (SMILES): CC(=O)OCc1ccc(-c2nc(C#N)c(N)o2)o1
- GI50 [1]: > 10 µM (inactive)
- GI50 [2]: > 10 µM (inactive)
- GI50 [3]: > 10 µM (inactive)
- GI50 [5]: > 10 µM (inactive)
- GI50 [6]: > 10 µM (inactive)
- GI50 [7]: > 10 µM (inactive)
- GI50 [8]: > 10 µM (inactive)
- GI50 [9]: > 10 µM (inactive)
- GI50 [10]: > 10 µM (inactive)
- GI50 [11]: > 10 µM (inactive)
- GI50 [12]: > 10 µM (inactive)
- GI50 [13]: > 10 µM (inactive)
- GI50 [14]: > 10 µM (inactive)
- GI50 [15]: > 10 µM (inactive)

Structure (SMILES): CNC(=S)N/N=C(\C)c1nc2cccnc2[nH]1
- GI50 [1]: 60.8 µM (inactive)
- GI50 [2]: 25.6 µM (inactive)
- GI50 [3]: 77.1 µM (inactive)
- GI50 [4]: > 100 µM (inactive)
- GI50 [5]: 36.8 µM (inactive)
- GI50 [6]: 29.9 µM (inactive)
- GI50 [7]: > 100 µM (inactive)
- GI50 [8]: 43.5 µM (inactive)
- GI50 [9]: 37.7 µM (inactive)
- GI50 [10]: 71.9 µM (inactive)
- GI50 [11]: 27.9 µM (inactive)
- GI50 [12]: 48.5 µM (inactive)
- GI50 [13]: 15.3 µM (inactive)
- GI50 [14]: 55.2 µM (inactive)
- GI50 [15]: 22.8 µM (inactive)

From ChEMBL document CHEMBL1201862, “PubChem BioAssay data set” (2004)
